The values that follow come from paper PMC6018554, “2-[2-(4-(trifluoromethyl)phenylamino)thiazol-4-yl]acetic acid (Activator-3) is a potent activator of AMPK” (Scientific Reports, 2018).

Test [1] deals with T1, recombinant human AMPK α1β1γ1 (Homo sapiens, UniProt P54619).
T1 construct: purchased SignalChem P47-10H-05/P48-10H-05 (for all four isozymes together); host or cells: baculovirus expression
Kind of test: In vitro AMP kinase assay (pACC ELISA), α1β1γ1. Type of test: biochemical. Conditions: AMP 1 µM to 300 µM with Activator-3 30 nM. An excerpt:
Having observed the effect of Activator-3 on the activation of AMPK in cell based assays, we next examined whether Activator-3 could activate AMPK directly or not. […] The activity of recombinant human AMPK (α1β1γ1, α2β1γ1, α2β2γ2 and α2β2γ3) in the presence of vehicle was considered as 100%. The EC50 of Activator-3 for the activation of α1β1γ1, α2β1γ1 and α2β2γ2 isozymes were similar. However, the activity of Activator-3 against α2β2γ3 was marginally higher (Fig. 1C).
(§1) A high binding Enzyme Immuno Assay (EIA) 96-well plate (Sigma: Cat# CLS3590) was coated with Acetyl CoA Carboxylase 2 (ACC: 175–271 amino acids) peptide, a direct substrate for AMPK, 100 ng per well (1:1000 ratio, Cat# 12–491, Upstate biotechnology) and incubated overnight at 25 °C. Reaction mixture was incubated at 30 °C for 2 h and reaction was stopped by washing the plate with 0.05% Tween 20 followed by incubation with pACC primary antibody and rabbit secondary antibody as described in cell based ELISA section. Assay buffer is composed of 10 mM DTT, 100 mM magnesium acetate, 50 μM ATP and 10 mM HEPES.

In test [2] the test system is human recombinant α1β1γ1 AMPK γ1 mutants (R70G, R152G). Kind of test: In vitro kinase assay with mutant AMPK pulled down from HEK-293T cells. Conditions: 100 µM AMP; γ1 mutants. The class given is biochemical. How it is done:
as §1
(§2) R70 and R152 residues in AMPK γ1 subunit (pDONR223-PRKAG1: purchased from addgene, cat# plasmid#23718) are mutated to glycine using overlapping extension PCR. Subsequently, the mutants were transferred into a triple tagged destination vector (Streptavidin, Flag and Biotin; SFB-pDEST) by using gateway cloning technology. The mutant DNA was transfected into HEK-293T cells using PEI following standard procedures. After 4 h of transfection, media was changed to DMEM containing 10% FBS. Cells were lysed in TENNS lysis buffer (20 mM Tris pH:8.0, 100 mM NaCl, 1 mM EDTA, 10 mM Na2H2P2O7, 10 mM NaF, 10 mM Na3VO4, 0.5% NP40) and subjected to pull down using streptavidin beads followed by biotin elution. To protect the protein from dephosphorylation, cells were treated with 500 μM AICAR prior to lysis. This purified protein was estimated by using nanodrop and taken for in vitro kinase assay to check whether Activator-3 is binding to the mutant AMPK or not, and the activity of the mutant protein was assessed by comparing with the wild type protein activity.

The target in test [3] is T2, human recombinant α1β1γ1 AMPK γ1 mutants (R70G, R152G) (Homo sapiens, UniProt P54619, R70G).
T2 construct: SFB triple tag (Streptavidin, Flag and Biotin; SFB-pDEST); host or cells: HEK-293T, streptavidin-bead pull-down with biotin elution
The test is described as above. The class given is biochemical. Conditions: 100 µM AMP; γ1 R70G. As to the method: as §1, §2

The next test relates to PFK1. Put plainly: PFK activity assay kit. The class given is biochemical. Conditions: AMP at 100 µM and 1 mM.
In test [4] the target is T3, recombinant human AMPK α2β2γ2 (Homo sapiens, UniProt Q9UGJ0).
T3 construct: purchased SignalChem; host or cells: baculovirus expression
Further details: method as in PMID 28705990. Conditions: cited from earlier work.

T1 sequence (P54619 whole entry): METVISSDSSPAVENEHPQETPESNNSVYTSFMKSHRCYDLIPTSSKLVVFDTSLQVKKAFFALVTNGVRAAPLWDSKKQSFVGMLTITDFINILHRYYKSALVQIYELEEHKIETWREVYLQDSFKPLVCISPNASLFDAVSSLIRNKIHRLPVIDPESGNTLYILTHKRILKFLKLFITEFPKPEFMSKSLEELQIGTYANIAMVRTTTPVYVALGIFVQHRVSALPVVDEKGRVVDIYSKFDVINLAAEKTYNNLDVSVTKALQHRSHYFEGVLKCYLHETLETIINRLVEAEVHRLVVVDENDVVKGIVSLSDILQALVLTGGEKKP
T1 sequence (Q13131 whole entry partner): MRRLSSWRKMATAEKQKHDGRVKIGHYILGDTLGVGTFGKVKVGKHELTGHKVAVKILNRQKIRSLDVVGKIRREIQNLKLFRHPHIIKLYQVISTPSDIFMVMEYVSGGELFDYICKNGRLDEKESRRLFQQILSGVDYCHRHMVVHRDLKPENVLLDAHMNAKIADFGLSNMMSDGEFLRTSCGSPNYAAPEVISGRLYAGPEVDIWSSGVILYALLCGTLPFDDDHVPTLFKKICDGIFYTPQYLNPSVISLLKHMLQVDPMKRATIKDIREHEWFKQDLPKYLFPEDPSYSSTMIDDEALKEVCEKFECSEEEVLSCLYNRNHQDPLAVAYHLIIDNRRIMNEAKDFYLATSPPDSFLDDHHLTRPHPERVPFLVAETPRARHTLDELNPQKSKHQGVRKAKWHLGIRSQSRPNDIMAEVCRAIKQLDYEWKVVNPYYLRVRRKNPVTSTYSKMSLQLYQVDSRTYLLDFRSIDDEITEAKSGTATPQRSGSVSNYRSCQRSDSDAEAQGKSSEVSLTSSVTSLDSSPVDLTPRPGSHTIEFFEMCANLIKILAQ
T1 sequence (Q9Y478 whole entry partner): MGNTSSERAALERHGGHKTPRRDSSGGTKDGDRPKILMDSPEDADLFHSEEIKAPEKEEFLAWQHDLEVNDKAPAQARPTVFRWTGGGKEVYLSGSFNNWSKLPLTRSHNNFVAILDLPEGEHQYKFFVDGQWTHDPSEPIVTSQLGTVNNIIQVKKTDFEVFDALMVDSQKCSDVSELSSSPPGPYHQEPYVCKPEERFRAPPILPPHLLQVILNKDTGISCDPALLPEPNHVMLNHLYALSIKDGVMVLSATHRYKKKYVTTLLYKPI
T3 sequence (Q9UGJ0 whole entry): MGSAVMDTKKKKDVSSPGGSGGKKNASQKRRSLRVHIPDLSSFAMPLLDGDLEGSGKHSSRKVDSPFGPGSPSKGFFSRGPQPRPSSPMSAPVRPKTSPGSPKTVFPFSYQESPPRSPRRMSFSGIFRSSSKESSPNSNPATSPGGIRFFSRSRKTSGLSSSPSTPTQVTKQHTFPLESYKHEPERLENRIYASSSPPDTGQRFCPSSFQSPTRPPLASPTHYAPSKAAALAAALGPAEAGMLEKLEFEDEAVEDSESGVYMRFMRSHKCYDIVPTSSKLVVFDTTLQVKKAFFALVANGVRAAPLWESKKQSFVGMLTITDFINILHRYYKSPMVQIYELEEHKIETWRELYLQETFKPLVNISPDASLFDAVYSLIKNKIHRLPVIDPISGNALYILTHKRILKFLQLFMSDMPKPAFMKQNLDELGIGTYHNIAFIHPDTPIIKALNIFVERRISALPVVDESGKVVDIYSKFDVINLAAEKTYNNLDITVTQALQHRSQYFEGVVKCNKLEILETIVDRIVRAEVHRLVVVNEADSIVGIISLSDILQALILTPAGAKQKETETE
T3 sequence (P54646 whole entry partner): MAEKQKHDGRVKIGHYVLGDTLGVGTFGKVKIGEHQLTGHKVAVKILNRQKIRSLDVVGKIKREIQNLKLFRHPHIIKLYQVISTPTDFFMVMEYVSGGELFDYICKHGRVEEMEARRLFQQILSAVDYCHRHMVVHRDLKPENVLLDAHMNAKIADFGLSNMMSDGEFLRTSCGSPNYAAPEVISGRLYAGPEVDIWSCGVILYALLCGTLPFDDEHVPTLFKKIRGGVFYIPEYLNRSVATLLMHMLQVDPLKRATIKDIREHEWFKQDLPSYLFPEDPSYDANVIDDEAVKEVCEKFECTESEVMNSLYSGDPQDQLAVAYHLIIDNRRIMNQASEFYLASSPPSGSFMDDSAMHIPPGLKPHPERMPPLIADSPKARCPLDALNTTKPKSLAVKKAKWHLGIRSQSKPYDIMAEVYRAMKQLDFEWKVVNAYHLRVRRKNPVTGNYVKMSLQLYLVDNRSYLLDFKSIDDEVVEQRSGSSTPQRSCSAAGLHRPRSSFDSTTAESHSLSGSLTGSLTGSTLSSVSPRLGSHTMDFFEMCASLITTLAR
T3 sequence (O43741 whole entry partner): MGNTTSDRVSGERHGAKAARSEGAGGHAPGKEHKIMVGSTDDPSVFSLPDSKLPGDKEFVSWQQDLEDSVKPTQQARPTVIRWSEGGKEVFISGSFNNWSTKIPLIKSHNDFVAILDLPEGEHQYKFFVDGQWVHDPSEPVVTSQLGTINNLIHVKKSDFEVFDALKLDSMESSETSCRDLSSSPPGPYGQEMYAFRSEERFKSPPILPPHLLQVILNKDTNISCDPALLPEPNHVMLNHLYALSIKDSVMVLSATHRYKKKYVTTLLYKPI
T2 sequence (P54619 whole entry R70G): as the sequence (P54619 whole entry) above, with R70G counted along it
T2 sequence (Q13131 whole entry partner): as the sequence (Q13131 whole entry partner) above
T2 sequence (Q9Y478 2-270 partner): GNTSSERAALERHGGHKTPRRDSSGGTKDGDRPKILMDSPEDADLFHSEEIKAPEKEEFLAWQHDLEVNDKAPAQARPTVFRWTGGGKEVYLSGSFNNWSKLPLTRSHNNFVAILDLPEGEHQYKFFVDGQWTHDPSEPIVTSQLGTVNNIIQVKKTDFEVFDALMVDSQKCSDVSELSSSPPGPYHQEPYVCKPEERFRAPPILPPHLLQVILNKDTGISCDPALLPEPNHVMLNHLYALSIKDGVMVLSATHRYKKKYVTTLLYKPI

Take `Nc1ncnc2c1ncn2C1OC(COP(=O)(O)O)C(O)C1O` (centres unmarked) [AMP, reference compound]: the “α1β1γ1 activity compared to 30 nM Activator-3 alone” value in test [1] is on record as “progressive enhancement”. In addition, the “AMPK activity of mutant proteins vs wild type” value in test [2] was “significant reduction”. Moreover, the “activation of AMPK, effect of R70G mutation” value in test [3] is “did not impact”. In the test with PFK1, the “effect on PFK1 activity” value was “activated”.

`O[C@@H]1CO[C@H]2[C@@H]1OC[C@H]2Oc1nc2nc(-c3ccc(-c4ccccc4)cc3)c(Cl)cc2[nH]1` [MK-8722]: the “Emax compared to basal activity” value in test [4] is listed as ~ 250%.
